# The supplement of paper PMC10307832
# What was measured:
# Assay in all cases: relative viability (nuclei count vs DMSO), 5 days (fraction); higher = more cells survive
# NCI-H322M = test system: NCI-H322M
# In short: (§1)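 Cells from lung cancer lines were seeded into 1536-well plates and, one day later, dosed by pin tool. Treatments were either a single drug or a fixed dose of an anchor drug with five library-drug doses (not always all listed) in √10 steps. After 5 days, nuclei were stained in a one-step fixation (final 0.05% Triton X-100, 1% formaldehyde, 1 ug/ml Hoechst) and counted on 4× images, and relative viability is the treated-to-vehicle nuclei ratio, as the median of duplicate plates.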
# SK-LU-1 = test system: SK-LU-1
# In short: as §1
# NCI-H2342 = test system: NCI-H2342
# In short: as §1
# EKVX = test system: EKVX
# In short: as §1
# EPLC-272H = test system: EPLC-272H
# In short: as §1
# NCI-H2126 = test system: NCI-H2126
# In short: as §1
# NCI-H23 = test system: NCI-H23
# In short: as §1
# EMC-BAC-2 = test system: EMC-BAC-2
# In short: as §1
# LCLC-103H = test system: LCLC-103H
# In short: as §1
# PC-14 = test system: PC-14
# In short: as §1
# LK-2 = test system: LK-2
# In short: as §1
# NCI-H2405 = test system: NCI-H2405
# In short: as §1
# HCC-827 = test system: HCC-827
# In short: as §1
# NCI-H1975 = test system: NCI-H1975
# In short: as §1
# RERF-LC-KJ = test system: RERF-LC-KJ
# In short: as §1
# HCC-78 = test system: HCC-78
# In short: as §1
# NCI-H1666 = test system: NCI-H1666
# In short: as §1
# ChaGo-K-1 = test system: ChaGo-K-1
# In short: as §1
# SW 1573 = test system: SW 1573
# In short: as §1
# LU99A = test system: LU99A
# In short: as §1
# SW 900 = test system: SW 900
# In short: as §1
compound,measurement,setting,value
COc1cc2nccc(Oc3ccc(NC(=O)Nc4cc(C)on4)c(Cl)c3)c2cc1OC [Tivozanib] + O=C(c1cc(Cc2n[nH]c(=O)c3ccccc23)ccc1F)N1CCN(C(=O)C2CC2)CC1 [Olaparib] (partner 8 µM),relative viability,NCI-H322M; first compound 0.005 µM,0.656
same,relative viability,NCI-H322M; first compound 0.01581 µM,0.811
same,relative viability,NCI-H322M; first compound 0.05 µM,0.755
same,relative viability,NCI-H322M; first compound 0.1581 µM,0.72
same,relative viability,NCI-H322M; first compound 0.5 µM,0.714
same,relative viability,SK-LU-1; first compound 0.005 µM,0.465
same,relative viability,SK-LU-1; first compound 0.01581 µM,0.474
same,relative viability,SK-LU-1; first compound 0.05 µM,0.528
same,relative viability,SK-LU-1; first compound 0.1581 µM,0.384
same,relative viability,SK-LU-1; first compound 0.5 µM,0.464
same,relative viability,NCI-H2342; first compound 0.005 µM,0.433
same,relative viability,NCI-H2342; first compound 0.01581 µM,0.404
same,relative viability,NCI-H2342; first compound 0.05 µM,0.465
same,relative viability,NCI-H2342; first compound 0.5 µM,0.42
same,relative viability,EKVX; first compound 0.005 µM,0.801
same,relative viability,EKVX; first compound 0.01581 µM,0.881
same,relative viability,EKVX; first compound 0.05 µM,0.908
same,relative viability,EKVX; first compound 0.1581 µM,0.922
same,relative viability,EKVX; first compound 0.5 µM,0.725
same,relative viability,EPLC-272H; first compound 0.005 µM,0.63
same,relative viability,EPLC-272H; first compound 0.01581 µM,0.969
same,relative viability,EPLC-272H; first compound 0.05 µM,0.741
same,relative viability,EPLC-272H; first compound 0.1581 µM,0.783
same,relative viability,EPLC-272H; first compound 0.5 µM,0.659
same,relative viability,NCI-H2126; first compound 0.005 µM,0.954
same,relative viability,NCI-H2126; first compound 0.01581 µM,0.907
same,relative viability,NCI-H2126; first compound 0.05 µM,1
same,relative viability,NCI-H2126; first compound 0.1581 µM,0.845
same,relative viability,NCI-H2126; first compound 0.5 µM,0.899
same,relative viability,NCI-H23; first compound 0.005 µM,0.363
same,relative viability,NCI-H23; first compound 0.01581 µM,0.288
same,relative viability,NCI-H23; first compound 0.05 µM,0.347
same,relative viability,NCI-H23; first compound 0.5 µM,0.253
same,relative viability,EMC-BAC-2; first compound 0.005 µM,0.492
same,relative viability,EMC-BAC-2; first compound 0.01581 µM,0.543
same,relative viability,EMC-BAC-2; first compound 0.05 µM,0.469
same,relative viability,EMC-BAC-2; first compound 0.1581 µM,0.472
same,relative viability,EMC-BAC-2; first compound 0.5 µM,0.358
same,relative viability,LCLC-103H; first compound 0.005 µM,0.785
same,relative viability,LCLC-103H; first compound 0.01581 µM,0.783
same,relative viability,LCLC-103H; first compound 0.05 µM,0.734
same,relative viability,LCLC-103H; first compound 0.1581 µM,0.791
same,relative viability,LCLC-103H; first compound 0.5 µM,0.853
same,relative viability,PC-14; first compound 0.005 µM,0.28
same,relative viability,PC-14; first compound 0.01581 µM,0.316
same,relative viability,PC-14; first compound 0.05 µM,0.262
same,relative viability,PC-14; first compound 0.1581 µM,0.376
same,relative viability,PC-14; first compound 0.5 µM,0.306
same,relative viability,LK-2; first compound 0.005 µM,0.67
same,relative viability,LK-2; first compound 0.01581 µM,0.759
same,relative viability,LK-2; first compound 0.05 µM,0.691
same,relative viability,LK-2; first compound 0.1581 µM,0.573
same,relative viability,LK-2; first compound 0.5 µM,0.613
same,relative viability,NCI-H2405; first compound 0.005 µM,0.831
same,relative viability,NCI-H2405; first compound 0.01581 µM,0.95
same,relative viability,NCI-H2405; first compound 0.05 µM,0.916
same,relative viability,NCI-H2405; first compound 0.1581 µM,1.01
same,relative viability,NCI-H2405; first compound 0.5 µM,0.669
same,relative viability,HCC-827; first compound 0.005 µM,0.572
same,relative viability,HCC-827; first compound 0.01581 µM,0.719
same,relative viability,HCC-827; first compound 0.05 µM,0.623
same,relative viability,HCC-827; first compound 0.1581 µM,0.612
same,relative viability,HCC-827; first compound 0.5 µM,0.623
same,relative viability,NCI-H1975; first compound 0.005 µM,0.753
same,relative viability,NCI-H1975; first compound 0.01581 µM,0.815
same,relative viability,NCI-H1975; first compound 0.05 µM,0.756
same,relative viability,NCI-H1975; first compound 0.1581 µM,0.76
same,relative viability,NCI-H1975; first compound 0.5 µM,0.662
same,relative viability,RERF-LC-KJ; first compound 0.005 µM,0.97
same,relative viability,RERF-LC-KJ; first compound 0.01581 µM,0.954
same,relative viability,RERF-LC-KJ; first compound 0.05 µM,0.974
same,relative viability,RERF-LC-KJ; first compound 0.1581 µM,0.929
same,relative viability,RERF-LC-KJ; first compound 0.5 µM,0.875
same,relative viability,HCC-78; first compound 0.005 µM,0.796
same,relative viability,HCC-78; first compound 0.01581 µM,0.746
same,relative viability,HCC-78; first compound 0.05 µM,0.732
same,relative viability,HCC-78; first compound 0.1581 µM,0.872
same,relative viability,HCC-78; first compound 0.5 µM,0.581
same,relative viability,NCI-H1666; first compound 0.005 µM,0.777
same,relative viability,NCI-H1666; first compound 0.01581 µM,0.713
same,relative viability,NCI-H1666; first compound 0.05 µM,0.739
same,relative viability,NCI-H1666; first compound 0.1581 µM,0.802
same,relative viability,NCI-H1666; first compound 0.5 µM,0.719
same,relative viability,ChaGo-K-1; first compound 0.005 µM,0.386
same,relative viability,ChaGo-K-1; first compound 0.01581 µM,0.381
same,relative viability,ChaGo-K-1; first compound 0.05 µM,0.409
same,relative viability,ChaGo-K-1; first compound 0.1581 µM,0.412
same,relative viability,ChaGo-K-1; first compound 0.5 µM,0.37
same,relative viability,SW 1573; first compound 0.005 µM,0.443
same,relative viability,SW 1573; first compound 0.01581 µM,0.416
same,relative viability,SW 1573; first compound 0.05 µM,0.434
same,relative viability,SW 1573; first compound 0.1581 µM,0.506
same,relative viability,SW 1573; first compound 0.5 µM,0.446
same,relative viability,LU99A; first compound 0.005 µM,0.275
same,relative viability,LU99A; first compound 0.01581 µM,0.247
same,relative viability,LU99A; first compound 0.05 µM,0.271
same,relative viability,LU99A; first compound 0.1581 µM,0.231
same,relative viability,LU99A; first compound 0.5 µM,0.27
same,relative viability,SW 900; first compound 0.005 µM,0.779
same,relative viability,SW 900; first compound 0.01581 µM,0.817
same,relative viability,SW 900; first compound 0.05 µM,0.776
same,relative viability,SW 900; first compound 0.5 µM,0.855
